These results are taken from patent US20240408216A1, “PROTEIN INHIBITOR OR DEGRADING AGENT, PHARMACEUTICAL COMPOSITION CONTAINING SAME AND PHARMACEUTICAL USE” (JING MEDICINE TECHNOLOGY (SHANGHAI) LTD., priority 2021, published 2024).

One may read the IC50 as the concentration that inhibits the measured activity by half.

T1 sequence (P00533 with tags, fused parts or gaps DEL746-750/C797S, form open): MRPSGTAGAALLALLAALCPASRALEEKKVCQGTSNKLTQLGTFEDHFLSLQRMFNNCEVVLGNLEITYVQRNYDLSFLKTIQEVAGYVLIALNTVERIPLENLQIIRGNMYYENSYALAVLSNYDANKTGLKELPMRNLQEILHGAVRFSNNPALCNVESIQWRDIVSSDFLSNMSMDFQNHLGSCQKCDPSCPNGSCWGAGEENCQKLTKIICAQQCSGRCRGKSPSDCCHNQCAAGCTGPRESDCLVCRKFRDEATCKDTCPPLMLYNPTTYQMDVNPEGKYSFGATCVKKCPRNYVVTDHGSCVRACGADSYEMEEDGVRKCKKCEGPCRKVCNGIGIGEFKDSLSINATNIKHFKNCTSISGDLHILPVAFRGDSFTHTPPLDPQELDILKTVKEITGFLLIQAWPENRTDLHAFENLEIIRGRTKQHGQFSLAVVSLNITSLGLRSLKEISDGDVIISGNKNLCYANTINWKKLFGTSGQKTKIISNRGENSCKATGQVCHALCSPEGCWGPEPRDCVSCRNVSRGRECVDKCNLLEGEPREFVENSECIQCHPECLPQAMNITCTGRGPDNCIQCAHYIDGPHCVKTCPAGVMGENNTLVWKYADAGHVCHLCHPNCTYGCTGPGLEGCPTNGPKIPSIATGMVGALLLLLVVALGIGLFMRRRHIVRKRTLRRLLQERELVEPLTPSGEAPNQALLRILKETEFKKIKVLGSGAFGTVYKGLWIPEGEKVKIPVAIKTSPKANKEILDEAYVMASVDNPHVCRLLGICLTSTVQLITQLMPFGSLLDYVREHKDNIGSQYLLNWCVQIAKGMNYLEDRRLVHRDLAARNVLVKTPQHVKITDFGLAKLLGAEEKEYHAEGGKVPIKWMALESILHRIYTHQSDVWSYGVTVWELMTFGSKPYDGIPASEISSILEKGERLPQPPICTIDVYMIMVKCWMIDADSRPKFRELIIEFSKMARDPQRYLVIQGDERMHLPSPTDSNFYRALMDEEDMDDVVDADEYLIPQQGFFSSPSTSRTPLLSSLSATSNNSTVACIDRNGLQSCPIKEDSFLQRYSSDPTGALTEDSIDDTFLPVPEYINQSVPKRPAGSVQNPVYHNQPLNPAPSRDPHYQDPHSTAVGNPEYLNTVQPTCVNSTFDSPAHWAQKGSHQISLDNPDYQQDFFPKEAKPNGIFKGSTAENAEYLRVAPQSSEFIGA

In the first experiment the test system is A431. Description: Cell proliferation IC50 assay (Cell Titer GLO), A431 cells. In kind it is cell-based. The following applies: Homo sapiens, A-431; Table 6; A431, 72 h; read-out: A431 IC50. How it is done: (§1) IC50 of compounds in the present invention was determined by Cell Titer GLO reagent from Promega. The procedures are as follows:
(§2) Tumor cells were cultured in specified medium in an incubator at 37° C. and 5% CO2. The cells were passaged periodically. Cells at the logarithmic growth phase were collected for plating at a density of 2000-4000 cells/well. The next day, the compounds of the present invention were serially diluted and added to the cells, with DMSO being the negative control and the culture media without cells being the blank control. The plate was incubated in the incubator for 72 h. The cell viability assay was performed by adding the detection reagents to the cell culture media according to Cell Titer GLO reagent instructions and detecting luminescent signals on an EnVision microplate reader (PerkinElmer).
(§3) Inhibition of cell growth by the compounds of the present invention was plotted by Prism Graphpad software for statistically calculating the IC50 of the compound of the present invention.
(Cellular ATP, detected with luciferase, serves as a proxy for viable cell number.)
For the molecule `CCc1cc(Nc2ncc(Cl)c(Nc3ccccc3P(C)(C)=O)n2)c(OC)cc1N1CCC(N2CCN(CCCc3cccc4c3CN(C3CCC(=O)NC3=O)C4=O)C(=O)C2)CC1` (stereo not shown) [Example E107], the IC50 is 1340 nM.

As for `CCc1cc(Nc2ncc(-c3cnn(C)c3)c(Nc3ccccc3P(C)(C)=O)n2)c(OC)cc1N1CCC(N2Cc3ccc(Oc4cccc5c4CN(C4CCC(=O)NC4=O)C5=O)cc3C2)CC1` (stereo not shown) [Example E172], the IC50 is > 4000 nM.

Regarding `CCc1cc(Nc2ncc(Cl)c(Nc3ccccc3P(C)(C)=O)n2)c(OC)cc1N1CCC(N2CCc3ccc(Oc4cccc5c4CN(C4CCC(=O)NC4=O)C5=O)cc3C2)CC1` (stereo not shown) [Example E76], the 50% inhibitory concentration (IC50) is > 4000 nM.

For `CCc1cc(Nc2ncc(-c3cnn(C)c3)c(Nc3ccccc3P(C)(C)=O)n2)c(OC)cc1N1CCC(N2CCN(CCOc3cc4c(cc3F)C(=O)N(C3CCC(=O)NC3=O)C4)CC2)CC1` (stereo not shown) [Example E189], the IC50 turned out to be 1010 nM.

Consider `CCc1cc(Nc2nc(Nc3ccccc3P(C)(C)=O)c3cn[nH]c3n2)c(OC)cc1N1CCC(N2CCN(CCCCOc3cccc4c3CN(C3CCC(=O)NC3=O)C4=O)CC2)CC1` (stereo not shown) [Example E161], for which the half-maximal inhibitory concentration (IC50) amounted to 1290 nM.

Take `CCc1cc(Nc2ncc(Cl)c(Nc3ccccc3P(C)(C)=O)n2)c(OC)cc1N1CCC(N2CCN(CCCCNc3cccc4c3CN(C3CCC(=O)NC3=O)C4=O)CC2)CC1` (stereo not shown) [Example E119]: the IC50 is 1400 nM.

In the case of `COc1cc(N2CCC(N3CCN(CCC#Cc4cccc5c4CN(C4CCC(=O)NC4=O)C5=O)CC3)CC2)c(C#N)cc1Nc1ncc(Cl)c(Nc2ccccc2P(C)(C)=O)n1` (stereo not shown) [Example E52], the concentration for half-maximal inhibition (IC50) came out at 1040 nM.

A further experiment has as its target T1, BaF3 (EGFR Del19/C797S) (Homo sapiens, UniProt P00533, C797S, cells depend on it, form not given).
T1 construct: BaF3 (EGFR Del19/C797S)|DC|RPMI1640 + 10% FBS
Description: Cell proliferation IC50 assay (Cell Titer GLO), BaF3 DC cells. In kind it is cell-based, mouse. Conditions: Table 6, 72 h. On the procedure: as §1, §2, §3
`CCc1cc(Nc2ncc(Cl)c(Nc3ccccc3P(C)(C)=O)n2)c(OC)cc1N1CCC(N2CCN(CCCc3cccc4c3CN(C3CCC(=O)NC3=O)C4=O)C(=O)C2)CC1` (stereo not shown) [Example E107] came in with a half-maximal inhibitory concentration (IC50) of 12.1 nM.

For `CCc1cc(Nc2ncc(-c3cnn(C)c3)c(Nc3ccccc3P(C)(C)=O)n2)c(OC)cc1N1CCC(N2Cc3ccc(Oc4cccc5c4CN(C4CCC(=O)NC4=O)C5=O)cc3C2)CC1` (stereo not shown) [Example E172], the IC50 stood at 2.4 nM.

In the case of `CCc1cc(Nc2ncc(Cl)c(Nc3ccccc3P(C)(C)=O)n2)c(OC)cc1N1CCC(N2CCc3ccc(Oc4cccc5c4CN(C4CCC(=O)NC4=O)C5=O)cc3C2)CC1` (stereo not shown) [Example E76], half-maximal inhibition (IC50) required 30.1 nM.

For the molecule `CCc1cc(Nc2ncc(-c3cnn(C)c3)c(Nc3ccccc3P(C)(C)=O)n2)c(OC)cc1N1CCC(N2CCN(CCOc3cc4c(cc3F)C(=O)N(C3CCC(=O)NC3=O)C4)CC2)CC1` (stereo not shown) [Example E189], 0.8 nM corresponded to half-maximal inhibition (IC50).

Consider `CCc1cc(Nc2nc(Nc3ccccc3P(C)(C)=O)c3cn[nH]c3n2)c(OC)cc1N1CCC(N2CCN(CCCCOc3cccc4c3CN(C3CCC(=O)NC3=O)C4=O)CC2)CC1` (stereo not shown) [Example E161], for which the IC50 came to 2 nM.

In turn, `CCc1cc(Nc2ncc(Cl)c(Nc3ccccc3P(C)(C)=O)n2)c(OC)cc1N1CCC(N2CCN(CCCCNc3cccc4c3CN(C3CCC(=O)NC3=O)C4=O)CC2)CC1` (stereo not shown) [Example E119] came in with an IC50 of 5.6 nM.

In turn, `COc1cc(N2CCC(N3CCN(CCC#Cc4cccc5c4CN(C4CCC(=O)NC4=O)C5=O)CC3)CC2)c(C#N)cc1Nc1ncc(Cl)c(Nc2ccccc2P(C)(C)=O)n1` (stereo not shown) [Example E52] yielded a half-maximal inhibitory concentration (IC50) of 15.2 nM.

A further experiment deals with BaF3 (EGFR WT). Description: Cell proliferation IC50 assay (Cell Titer GLO), BaF3 WT cells. In kind it is cell-based. The following applies: Mus musculus, Ba/F3 EGFR, Table 6, 10 ng/ml EGF, 72 h. On the procedure: as §1, §2, §3
Take `CCc1cc(Nc2ncc(Cl)c(Nc3ccccc3P(C)(C)=O)n2)c(OC)cc1N1CCC(N2CCN(CCCc3cccc4c3CN(C3CCC(=O)NC3=O)C4=O)C(=O)C2)CC1` (stereo not shown) [Example E107]: the half-inhibitory concentration (IC50) was > 4000 nM.

In the case of `CCc1cc(Nc2ncc(-c3cnn(C)c3)c(Nc3ccccc3P(C)(C)=O)n2)c(OC)cc1N1CCC(N2Cc3ccc(Oc4cccc5c4CN(C4CCC(=O)NC4=O)C5=O)cc3C2)CC1` (stereo not shown) [Example E172], the IC50 amounted to 1070 nM.

With `CCc1cc(Nc2ncc(Cl)c(Nc3ccccc3P(C)(C)=O)n2)c(OC)cc1N1CCC(N2CCc3ccc(Oc4cccc5c4CN(C4CCC(=O)NC4=O)C5=O)cc3C2)CC1` (stereo not shown) [Example E76], the half-maximal inhibitory concentration (IC50) is > 4000 nM.

`CCc1cc(Nc2ncc(-c3cnn(C)c3)c(Nc3ccccc3P(C)(C)=O)n2)c(OC)cc1N1CCC(N2CCN(CCOc3cc4c(cc3F)C(=O)N(C3CCC(=O)NC3=O)C4)CC2)CC1` (stereo not shown) [Example E189] yielded a half-inhibitory concentration (IC50) of 496 nM.

`CCc1cc(Nc2nc(Nc3ccccc3P(C)(C)=O)c3cn[nH]c3n2)c(OC)cc1N1CCC(N2CCN(CCCCOc3cccc4c3CN(C3CCC(=O)NC3=O)C4=O)CC2)CC1` (stereo not shown) [Example E161] yielded a 50% inhibitory concentration (IC50) of 1190 nM.

`CCc1cc(Nc2ncc(Cl)c(Nc3ccccc3P(C)(C)=O)n2)c(OC)cc1N1CCC(N2CCN(CCCCNc3cccc4c3CN(C3CCC(=O)NC3=O)C4=O)CC2)CC1` (stereo not shown) [Example E119]: the IC50 is > 4000 nM.

Consider `COc1cc(N2CCC(N3CCN(CCC#Cc4cccc5c4CN(C4CCC(=O)NC4=O)C5=O)CC3)CC2)c(C#N)cc1Nc1ncc(Cl)c(Nc2ccccc2P(C)(C)=O)n1` (stereo not shown) [Example E52], for which the IC50 was > 4000 nM.

In a further experiment the test system is BaF3 (EGFR L858R/T790M/C797S). Description: Cell proliferation IC50 assay (Cell Titer GLO), BaF3 LTC cells. In kind it is cell-based. The following applies: Mus musculus, Ba/F3 EGFR, Table 6, 72 h. How it is done: as §1, §2, §3
For the molecule `CCc1cc(Nc2ncc(Cl)c(Nc3ccccc3P(C)(C)=O)n2)c(OC)cc1N1CCC(N2CCN(CCCc3cccc4c3CN(C3CCC(=O)NC3=O)C4=O)C(=O)C2)CC1` (stereo not shown) [Example E107], the IC50 was 158 nM.

As to `CCc1cc(Nc2ncc(-c3cnn(C)c3)c(Nc3ccccc3P(C)(C)=O)n2)c(OC)cc1N1CCC(N2Cc3ccc(Oc4cccc5c4CN(C4CCC(=O)NC4=O)C5=O)cc3C2)CC1` (stereo not shown) [Example E172], the IC50 was > 4000 nM.

`CCc1cc(Nc2ncc(Cl)c(Nc3ccccc3P(C)(C)=O)n2)c(OC)cc1N1CCC(N2CCc3ccc(Oc4cccc5c4CN(C4CCC(=O)NC4=O)C5=O)cc3C2)CC1` (stereo not shown) [Example E76]: the concentration for half-maximal inhibition (IC50) is 147 nM.

Take `CCc1cc(Nc2ncc(-c3cnn(C)c3)c(Nc3ccccc3P(C)(C)=O)n2)c(OC)cc1N1CCC(N2CCN(CCOc3cc4c(cc3F)C(=O)N(C3CCC(=O)NC3=O)C4)CC2)CC1` (stereo not shown) [Example E189]: the IC50 is > 4000 nM.

On to `CCc1cc(Nc2nc(Nc3ccccc3P(C)(C)=O)c3cn[nH]c3n2)c(OC)cc1N1CCC(N2CCN(CCCCOc3cccc4c3CN(C3CCC(=O)NC3=O)C4=O)CC2)CC1` (stereo not shown) [Example E161], for which the 50% inhibitory concentration (IC50) was 135 nM.

Molecule `CCc1cc(Nc2ncc(Cl)c(Nc3ccccc3P(C)(C)=O)n2)c(OC)cc1N1CCC(N2CCN(CCCCNc3cccc4c3CN(C3CCC(=O)NC3=O)C4=O)CC2)CC1` (stereo not shown) [Example E119] gave an IC50 of 67.3 nM.

`COc1cc(N2CCC(N3CCN(CCC#Cc4cccc5c4CN(C4CCC(=O)NC4=O)C5=O)CC3)CC2)c(C#N)cc1Nc1ncc(Cl)c(Nc2ccccc2P(C)(C)=O)n1` (stereo not shown) [Example E52] returned a half-maximal inhibitory concentration (IC50) of 41.7 nM.
